Legend:
Assay type in all cases: biochemical
[1] = tested on: N-acetyl-β-D-glucosaminidase (bovine kidney); test: Glycosidase inhibition, Table 7; conditions: 1 mg/mL aqueous solution added, 27 °C, run in water
Experimental: (§1) All enzymes and para-nitrophenyl substrates were purchased from Sigma. Enzymes were assayed at 27 °C in citric acid (0.1M)/disodium hydrogen phosphate (0.2 M) buffers at the optimum pH for the enzyme. The incubation mixture consisted of […] enzyme solution, […] of 1 mg/mL aqueous solution of extract, and […] of the appropriate 5 mM para-nitrophenyl substrate made up in buffer at the optimum pH for the enzyme. The reactions were stopped by the addition of […] 0.4 M glycine (pH 10.4) during the exponential phase of the reaction, which had been determined at the beginning using uninhibited assays in which water replaced the inhibitor. Final absorbances were read at 405 nm using a Versamax microplate reader (Molecular Devices). Assays were carried out in triplicate, and the values given are the means of the three replicates per assay. All reactions run in water.

[2] = target: T1, α-D-mannosidase (Jack bean) (Canavalia ensiformis, UniProt C0HJB3); test: Glycosidase inhibition, Table 7; conditions: 1 mg/mL aqueous solution added, 27 °C, run in water; for inhibition at 1000 µg/mL (stock): read-out: α-D-Mannosidase Jack Bean, percentage inhibition
T1 construct: purchased Sigma
T1 sequence (C0HJB3 1-981): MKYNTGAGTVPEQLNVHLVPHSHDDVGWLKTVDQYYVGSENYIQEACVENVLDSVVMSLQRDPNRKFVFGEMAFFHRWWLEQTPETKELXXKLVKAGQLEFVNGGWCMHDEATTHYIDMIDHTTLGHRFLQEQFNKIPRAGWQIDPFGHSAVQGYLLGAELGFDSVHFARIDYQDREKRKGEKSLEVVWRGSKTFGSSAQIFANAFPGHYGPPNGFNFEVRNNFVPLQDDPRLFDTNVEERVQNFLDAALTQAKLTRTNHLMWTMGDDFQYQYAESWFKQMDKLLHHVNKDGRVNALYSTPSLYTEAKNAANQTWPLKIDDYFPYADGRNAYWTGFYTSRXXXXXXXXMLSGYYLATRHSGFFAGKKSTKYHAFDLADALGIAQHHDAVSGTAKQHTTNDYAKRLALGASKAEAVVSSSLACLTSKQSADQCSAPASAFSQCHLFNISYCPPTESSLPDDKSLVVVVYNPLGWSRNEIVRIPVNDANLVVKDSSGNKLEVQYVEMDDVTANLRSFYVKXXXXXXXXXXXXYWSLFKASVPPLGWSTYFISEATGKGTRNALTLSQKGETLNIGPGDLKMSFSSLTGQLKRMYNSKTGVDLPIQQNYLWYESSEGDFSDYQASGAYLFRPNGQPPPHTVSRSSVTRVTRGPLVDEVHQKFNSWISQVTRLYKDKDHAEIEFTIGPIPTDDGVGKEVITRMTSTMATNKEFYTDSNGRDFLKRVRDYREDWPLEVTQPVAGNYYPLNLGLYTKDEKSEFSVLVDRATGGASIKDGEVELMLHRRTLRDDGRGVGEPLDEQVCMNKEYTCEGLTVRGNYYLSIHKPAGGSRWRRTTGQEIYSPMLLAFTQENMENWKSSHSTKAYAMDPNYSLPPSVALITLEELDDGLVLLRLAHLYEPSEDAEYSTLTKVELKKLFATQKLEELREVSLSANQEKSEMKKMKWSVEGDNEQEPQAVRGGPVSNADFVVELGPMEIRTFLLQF
Experimental: as §1

[3] = tested on: α-D-glucosidase (Bacillus); test: Glycosidase inhibition, Table 7; conditions: 1 mg/mL aqueous solution added, 27 °C, run in water
Experimental: as §1

[4] = tested on: panel of eight glycosidases; test: Glycosidase inhibition, whole panel of Table 7; conditions: 1 mg/mL aqueous solution added
Experimental: as §1

panel of 15 glycosidases = test: Glycosidase inhibition, whole panel of Table 6; conditions: at 100 or 1000 μM
Excerpt: The enzymes α-D-glucosidase (from yeast), β-D-glucosidases (from almond and bovine liver), α-D-galactosidase (from coffee beans), β-D-galactosidase (from bovine liver), α-D-mannosidase (from Jack bean), β-D-mannosidase (from snail), α-L-rhamnosidase (from Penicillium decumbens), α-L-fucosidase (from bovine kidney), trehalase (from porcine kidney), β-D-glucuronidases (from E. coli and bovine liver), amyloglucosidase (from A. niger), para-nitrophenyl glycosides, and various disaccharides were purchased from Sigma-Aldrich Co. (St. Louis, MO, USA).
Brush border membranes were prepared from the rat small intestine according to the method of Kessler et al., and were assayed at pH 6.8 for rat intestinal maltase using maltose. For rat intestinal maltase, porcine kidney trehalase, and A. niger amyloglucosidase activities, the reaction mixture contained maltose (25 mM) and the appropriate amount of enzyme, and the incubations were performed for 10–30 min at 37 °C. The reaction was stopped by heating at 100 °C for 3 min. […] The absorbance at 505 nm was measured to determine the amount of the released D-glucose. Other glycosidase activities were determined using an appropriate para-nitrophenyl glycoside as substrate at the optimum pH of each enzyme. […] The released para-nitrophenol was measured spectrometrically at 400 nm. […]

[5] = tested on: N-acetyl-β-D-hexosaminidase (rat intestine); test: Glycosidase inhibition, Table 7; conditions: 1 mg/mL aqueous solution added, 27 °C, run in water
Experimental: as §1

[6] = tested on: α-D-glucosidase (rat intestine); test: Glycosidase inhibition, Table 7; conditions: 1 mg/mL aqueous solution added, 27 °C, run in water
Experimental: as §1

[7] = target: β-D-glucosidase (human lysosome) (Homo sapiens, UniProt P04062); test: Glycosidase inhibition, Table 6 footnote
[8] = target: β-D-galactosidase (E. coli) (Escherichia coli, UniProt P00722); test: Glycosidase inhibition, Table 6 footnote; conditions: read-out: β-D-galactosidase (E. coli), inhibition % at 100 μM
[9] = target: α-D-glucosidase (human lysosome) (Homo sapiens, UniProt P10253); test: Glycosidase inhibition, Table 6 footnote

β-D-glucosidase (human lysosome), sequence (P04062 40-536): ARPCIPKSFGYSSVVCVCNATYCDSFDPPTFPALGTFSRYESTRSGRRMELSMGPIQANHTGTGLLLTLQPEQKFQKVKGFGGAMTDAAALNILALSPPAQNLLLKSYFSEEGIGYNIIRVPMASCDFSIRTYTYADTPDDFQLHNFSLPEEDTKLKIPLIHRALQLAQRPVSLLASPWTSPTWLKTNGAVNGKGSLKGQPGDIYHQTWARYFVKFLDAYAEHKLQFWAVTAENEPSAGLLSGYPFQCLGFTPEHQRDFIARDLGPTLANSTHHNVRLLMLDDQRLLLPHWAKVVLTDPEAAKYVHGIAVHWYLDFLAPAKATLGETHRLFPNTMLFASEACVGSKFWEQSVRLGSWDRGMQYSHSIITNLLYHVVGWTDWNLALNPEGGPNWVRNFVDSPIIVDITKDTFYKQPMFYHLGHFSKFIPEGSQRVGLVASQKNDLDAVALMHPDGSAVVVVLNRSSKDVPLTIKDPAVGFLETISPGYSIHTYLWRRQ
β-D-galactosidase (E. coli), sequence (P00722 2-1024): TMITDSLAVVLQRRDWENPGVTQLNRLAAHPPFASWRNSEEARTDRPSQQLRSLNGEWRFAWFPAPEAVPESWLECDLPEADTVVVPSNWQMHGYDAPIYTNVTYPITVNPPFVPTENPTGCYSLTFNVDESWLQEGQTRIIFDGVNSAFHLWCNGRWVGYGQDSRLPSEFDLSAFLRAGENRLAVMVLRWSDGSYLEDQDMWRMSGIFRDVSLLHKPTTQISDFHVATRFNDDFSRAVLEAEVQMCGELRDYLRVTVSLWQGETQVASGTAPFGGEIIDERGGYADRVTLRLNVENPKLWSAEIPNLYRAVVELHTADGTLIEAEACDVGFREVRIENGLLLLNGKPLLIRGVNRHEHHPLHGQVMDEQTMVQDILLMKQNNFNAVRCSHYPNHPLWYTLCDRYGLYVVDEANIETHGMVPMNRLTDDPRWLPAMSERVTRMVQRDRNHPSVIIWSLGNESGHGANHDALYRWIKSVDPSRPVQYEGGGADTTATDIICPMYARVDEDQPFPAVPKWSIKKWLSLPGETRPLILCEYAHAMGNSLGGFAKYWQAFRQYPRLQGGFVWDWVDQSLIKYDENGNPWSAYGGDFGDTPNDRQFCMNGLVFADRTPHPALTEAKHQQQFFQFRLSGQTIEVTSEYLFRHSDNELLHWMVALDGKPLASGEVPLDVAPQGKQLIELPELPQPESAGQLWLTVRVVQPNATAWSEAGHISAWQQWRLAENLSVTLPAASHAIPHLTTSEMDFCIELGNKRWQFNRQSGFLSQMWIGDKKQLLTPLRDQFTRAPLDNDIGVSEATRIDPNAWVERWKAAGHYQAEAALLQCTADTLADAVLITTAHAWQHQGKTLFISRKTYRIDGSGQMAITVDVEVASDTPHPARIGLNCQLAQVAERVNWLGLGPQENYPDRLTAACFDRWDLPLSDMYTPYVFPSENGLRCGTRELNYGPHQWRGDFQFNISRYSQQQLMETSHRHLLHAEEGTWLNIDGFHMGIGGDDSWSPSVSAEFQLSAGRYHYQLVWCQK

Compound	N-Acetyl-β-D-glucosaminidase Bovine Kidney, percentage inhibition [1] [%]	inhibition at 1000 µg/mL (stock) [2] [%]	α-D-Glucosidase Bacillus, percentage inhibition [3] [%]	inhibitions across the panel (Table 7) [4]	N-Acetyl-β-D-hexosaminidase Rat Intestine, percentage inhibition [5] [%]	also measured
OC1O[C@@H]2[C@H]([C@H]1O)N(Cc1ccccc1)C[C@H]2O (stereo partly drawn) [Compound 4, N-Benzyl-3,6-dideoxy-3,6-imino-D-gulofuranose]	−9.1	-12.1	−37.9	–	–	–
N[C@@H](Cc1ccc(B(O)O)cc1)C(=O)O [^10B-BPA, reference compound]	6.3	–	19.5	below 30%	–	α-D-Mannosidase Jack Bean, percentage inhibition [2]: −0.7%
borocaptate sodium [BSH, reference compound]	37.1	–	48.1	31.6–65.9%	–	α-D-Mannosidase Jack Bean, percentage inhibition [2]: −18.7%
N[C@@H](Cc1ccc(B(O)O)cc1)C(=O)O [BPA, 4-borono-L-phenylalanine, reference compound]	6.7	0.6	19.9	below 30%	–	–
CC1(C)O[C@H]2O[C@H]3[C@@H]([C@H]2O1)N(Cc1ccccc1)C[C@H]3O [Compound 3, N-Benzyl-3,6-dideoxy-3,6-imino-1,2-O-isopropylidene-α-D-gulofuranose]	−0.1	-30.6	−43.2	–	–	–
CC1(C)O[C@H]2O[C@H]3[C@@H]([C@H]2O1)N(Cc1ccc(B2OC(C)(C)C(C)(C)O2)cc1)C[C@H]3O [para 6, N-(4-Methylphenylboronic acid pinacol ester)-3,6-dideoxy-3,6-imino-1,2-O-isopropylidene-α-D-gulofuranose]	–	–	–	–	–	percent inhibitions in the panel (Table 6) (panel of 15 glycosidases): do not provide a strong degree of inhibition
OC[C@H](O)[C@@H]1[C@H](O)[C@H](O)CN1Cc1ccc(B(O)O)cc1 [para 8, N-(4-Methylphenylboronic acid)-1,4-dideoxy-1,4-imino-L-gulitol]	–	–	–	–	2.6	–
OB(O)c1ccc(CN2CC(O)C3OC(O)C(O)C32)cc1 [para 7, N-(4-Methylphenylboronic acid)-3,6-dideoxy-3,6-imino-D-gulofuranose]	–	–	–	–	4.4	α-D-Glucosidase Rat Intestine, percentage inhibition [6]: −5.4%
OC[C@H](O)[C@@H]1[C@H](O)[C@H](O)CN1Cc1ccccc1 [Compound 5, N-Benzyl-1,4-dideoxy-1,4-imino-L-gulitol]	–	–	–	–	−1.5	percent inhibitions in the panel (Table 6) (panel of 15 glycosidases): do not provide a strong degree of inhibition; inhibition at 100 µM [7]: 2.91%; inhibition at 100 µM [8]: 0%; α-D-Glucosidase Rat Intestine, percentage inhibition [6]: −1.3%; inhibition at 100 µM [9]: 0%
